Assay [1] has as its system Staphylococcus aureus S13E. It counts as cell-based. On the procedure:
(§1) The MIC's were determined using a standard broth micro-dilution assay.

For assay [2], the system named is Staphylococcus aureus SA1199B. The assay is classed as cell-based. How it is done: as §1
The subject of assay [3] is Staphylococcus aureus 489. The assay is described as follows: broth micro-dilution MIC. It counts as cell-based. How it is done: as §1
On the technique in general: Broth dilution looks for growth in wells or tubes with falling amounts of substance.

Assay [4] deals with Staphylococcus aureus 491. The assay is described as follows: broth micro-dilution MIC. The assay is classed as cell-based. On the procedure: as §1
The test system of assay [5] is Staphylococcus aureus 446. As to the kind of experiment: broth micro-dilution MIC. It counts as cell-based. On the procedure: as §1
Assay [6] has as its system Entercoccus faecium 180-1. The assay is described as follows: broth micro-dilution MIC. The assay is classed as cell-based. On the procedure:
as §1

In assay [7] the test system is Staphylococcus aureus X400. As to the kind of experiment: broth micro-dilution MIC. The assay is classed as cell-based. How it is done: as §1
The test system of assay [8] is Staphylococcus aureus SA1199. The assay is described as follows: broth micro-dilution MIC. It counts as cell-based. On the procedure: as §1
Assay [9] deals with Streptococcus pyogenes C203. As to the kind of experiment: broth micro-dilution MIC. The assay is classed as cell-based. On the procedure: as §1
Assay [10] deals with Staphylococcus aureus SA1199A. The assay is described as follows: broth micro-dilution MIC. It counts as cell-based. On the procedure: as §1
In assay [11] the test system is Staphylococcus aureus 447. As to the kind of experiment: broth micro-dilution MIC. The assay is classed as cell-based. How it is done: as §1
Assay [12] relates to Staphylococcus aureus X778. The assay is described as follows: broth micro-dilution MIC. It counts as cell-based. How it is done: as §1
For a further assay, the system named is Entercoccus faecium 276. The assay is described as follows: broth micro-dilution MIC. It counts as cell-based. On the procedure:
as §1

In assay [13] the test system is Staphylococcus haemolyticus 415. The assay is described as follows: broth micro-dilution MIC. It counts as cell-based. How it is done:
(§2) The formula I compounds have in vitro and in vivo activity against Gram-positive pathogenic bacteria. The MIC's were determined using a standard broth micro-dilution assay.

The subject of assay [14] is Staphylococcus haemolyticus 105. The assay is described as follows: broth micro-dilution MIC. It counts as cell-based. How it is done:
as §2

The subject of assay [15] is Enterococcus gallinarum 245. As to the kind of experiment: broth micro-dilution MIC. It counts as cell-based. The note with it: Enterococcus gallinarum 245. How it is done: as §2
The subject of assay [16] is Streptococcus pneumoniae P1. The assay is described as follows: broth micro-dilution MIC. The assay is classed as cell-based. On the procedure: as §2
Assay [17] concerns Staphylococcus epidermidis 270. The assay is described as follows: broth micro-dilution MIC. It counts as cell-based. On the procedure:
as §2

Assay [18] relates to Haemophilus influenzae RD. The assay is described as follows: broth micro-dilution MIC. It counts as cell-based. The note with it: Haemophilus influenzae RD. On the procedure: as §2
The test system of a further assay is Escherichia coli EC14. The assay is described as follows: broth micro-dilution MIC. The assay is classed as cell-based. How it is done: as §2
The next assay deals with Entercoccus faecium 2041. As to the kind of experiment: broth micro-dilution MIC. Particulars: Entercoccus faecium 2041. It counts as cell-based. How it is done:
as §2

Another assay relates to Entercoccus faecium 180. As to the kind of experiment: broth micro-dilution MIC. The assay is classed as cell-based. The note with it: Entercoccus faecium 180. On the procedure:
as §2

For assay [19], the system named is vancomycin-resistant enterococci. As to the kind of experiment: broth micro-dilution, mean geometric MIC. The assay is classed as cell-based, Enterococcus faecium and Enterococcus faecalis. Particulars: enterococci, 24-hour incubation.
The test system of assay [20] is vancomycin-susceptible enterococci. The assay is described as follows: broth micro-dilution, mean geometric MIC. The assay is classed as cell-based, Enterococcus faecium and Enterococcus faecalis. The note with it: enterococci, 24-hour incubation.

Structures are written as SMILES. In brackets after ≈: the same amount, converted by molar mass.

`CC(C)CC(C(=O)NC1C(=O)NC(CC(N)=O)C(=O)NC2C(=O)NC3C(=O)NC(C(=O)NC(C(=O)O)c4cc(O)cc(O)c4-c4cc3ccc4O)C(OC3CC(C)(N)C(O)C(C)O3)c3ccc(c(Cl)c3)Oc3cc2cc(c3OC2OC(CO)C(O)C(O)C2OC2CC(C)(N)C(O)C(C)O2)Oc2ccc(cc2Cl)C1O)N(C)Cc1ccc(O)cc1` (stereo not drawn) [Compound 257]: the MIC in assay [1], in [2], in [3], in assay [4], in [5] and in assay [6] was not above 0.06 µg/mL in each case. Moreover, the MIC was not above 0.06 µg/mL in assay [7]; not above 0.06 µg/mL in assay [8]; not above 0.06 µg/mL in assay [9]; not above 0.06 µg/mL in [10]; 0.25 µg/mL (≈ 0.147 µM) in assay [11]; not above 0.06 µg/mL in assay [12]. In addition, the MIC is not above 0.06 µg/mL against Entercoccus faecium 276; 8 µg/mL (≈ 4.71 µM) in assay [13]; 2 µg/mL (≈ 1.18 µM) in [14]; not above 0.06 µg/mL in [15]; not above 0.06 µg/mL in assay [16]; 0.25 µg/mL (≈ 0.147 µM) in assay [17]. Also, the MIC in assay [18] was more than 64 µg/mL; with Escherichia coli EC14, more than 64 µg/mL; against Entercoccus faecium 2041, not above 0.06 µg/mL; with Entercoccus faecium 180, 4 µg/mL (≈ 2.35 µM). The “mean geometric MIC, Vancomycin Resistant Strains” value in [19] is 64 µg/mL. Moreover, the “mean geometric MIC, Vancomycin Sensitive Strains” value in [20] worked out at 1 µg/mL.
Take `CC(C)CC(C(=O)NC1C(=O)NC(CC(N)=O)C(=O)NC2C(=O)NC3C(=O)NC(C(=O)NC(C(=O)O)c4cc(O)cc(O)c4-c4cc3ccc4O)C(OC3CC(C)(N)C(O)C(C)O3)c3ccc(c(Cl)c3)Oc3cc2cc(c3OC2OC(CO)C(O)C(O)C2OC2CC(C)(NCc3ccc4c(c3)CCCC4)C(O)C(C)O2)Oc2ccc(cc2Cl)C1O)N(C)Cc1ccc2c(c1)CCCC2` (stereo not drawn) [Compound 258]: the MIC in assay [1] is 2 µg/mL (≈ 1.06 µM); in [2], 0.25 µg/mL (≈ 0.133 µM); in assay [3], 1 µg/mL (≈ 0.532 µM); in assay [4], 1 µg/mL (≈ 0.532 µM); in [5], 1 µg/mL (≈ 0.532 µM); in assay [6] it was 4 µg/mL (≈ 2.13 µM). Besides, the MIC is 2 µg/mL (≈ 1.06 µM) in assay [7]; 2 µg/mL (≈ 1.06 µM) in assay [8]; not above 0.06 µg/mL in assay [9]; 2 µg/mL (≈ 1.06 µM) in [10]; 1 µg/mL (≈ 0.532 µM) in [11]; 1 µg/mL (≈ 0.532 µM) in [12]. The MIC in the assay on Entercoccus faecium 276 was 1 µg/mL (≈ 0.532 µM); in assay [13], 2 µg/mL (≈ 1.06 µM); in [14], 1 µg/mL (≈ 0.532 µM); in assay [15], 1 µg/mL (≈ 0.532 µM); in assay [16] it was not above 0.06 µg/mL; in [17] it was 2 µg/mL (≈ 1.06 µM). Further, the MIC in assay [18] is more than 64 µg/mL; in the assay on Escherichia coli EC14, more than 64 µg/mL; in the assay with Entercoccus faecium 2041, 0.5 µg/mL (≈ 0.266 µM); with Entercoccus faecium 180 it was 1 µg/mL (≈ 0.532 µM). The “mean geometric MIC, Vancomycin Resistant Strains” value in assay [19] worked out at 8 µg/mL. In assay [20], the “mean geometric MIC, Vancomycin Sensitive Strains” value turned out to be 1 µg/mL.
In the case of `CC(C)CC(C(=O)NC1C(=O)NC(CC(N)=O)C(=O)NC2C(=O)NC3C(=O)NC(C(=O)NC(C(=O)O)c4cc(O)cc(O)c4-c4cc3ccc4O)C(OC3CC(C)(N)C(O)C(C)O3)c3ccc(c(Cl)c3)Oc3cc2cc(c3OC2OC(CO)C(O)C(O)C2OC2CC(C)(NCc3ccc(N(C)c4ccccc4)cc3)C(O)C(C)O2)Oc2ccc(cc2Cl)C1O)N(C)Cc1ccc(N(C)c2ccccc2)cc1` (stereo not drawn) [Compound 260], the MIC was determined as 4 µg/mL (≈ 2.02 µM) in assay [1]; 2 µg/mL (≈ 1.01 µM) in [2]; 2 µg/mL (≈ 1.01 µM) in assay [3]; 1 µg/mL (≈ 0.504 µM) in [4]; 2 µg/mL (≈ 1.01 µM) in [5]; 0.25 µg/mL (≈ 0.126 µM) in assay [6]. For the same molecule, the MIC was 4 µg/mL (≈ 2.02 µM) in [7]; 2 µg/mL (≈ 1.01 µM) in [8]; not above 0.06 µg/mL in assay [9]; 0.5 µg/mL (≈ 0.252 µM) in [10]; 4 µg/mL (≈ 2.02 µM) in assay [11]; 1 µg/mL (≈ 0.504 µM) in [12]. The MIC in the assay on Entercoccus faecium 276 was 2 µg/mL (≈ 1.01 µM); in assay [13], 2 µg/mL (≈ 1.01 µM); in assay [14], 1 µg/mL (≈ 0.504 µM); in assay [15], 0.25 µg/mL (≈ 0.126 µM); in assay [16] it was not above 0.06 µg/mL; in [17] it was 1 µg/mL (≈ 0.504 µM). Further, the MIC was more than 64 µg/mL in assay [18], more than 64 µg/mL with Escherichia coli EC14, 1 µg/mL (≈ 0.504 µM) with Entercoccus faecium 2041 and 0.5 µg/mL (≈ 0.252 µM) against Entercoccus faecium 180. Further, the “mean geometric MIC, Vancomycin Resistant Strains” value in assay [19] came out at 4.8 µg/mL. Besides, in assay [20], the “mean geometric MIC, Vancomycin Sensitive Strains” value was 1.1 µg/mL.
As to `CC(C)CC(C(=O)NC1C(=O)NC(CC(N)=O)C(=O)NC2C(=O)NC3C(=O)NC(C(=O)NC(C(=O)O)c4cc(O)cc(O)c4-c4cc3ccc4O)C(OC3CC(C)(N)C(O)C(C)O3)c3ccc(c(Cl)c3)Oc3cc2cc(c3OC2OC(CO)C(O)C(O)C2OC2CC(C)(NCc3c4c(cc5ccccc35)CCCC4)C(O)C(C)O2)Oc2ccc(cc2Cl)C1O)N(C)Cc1c2c(cc3ccccc13)CCCC2` (stereo not drawn) [Compound 262], the MIC is 1 µg/mL (≈ 0.505 µM) in [1]; 0.5 µg/mL (≈ 0.252 µM) in assay [2]; 1 µg/mL (≈ 0.505 µM) in assay [3]; 1 µg/mL (≈ 0.505 µM) in assay [4]; 2 µg/mL (≈ 1.01 µM) in assay [5]; not above 0.06 µg/mL in assay [6]. Further, the MIC in assay [7] was 2 µg/mL (≈ 1.01 µM); in assay [8] it was 0.5 µg/mL (≈ 0.252 µM); in assay [9] it was not above 0.06 µg/mL; in [10] it was not above 0.06 µg/mL; in assay [11], 1 µg/mL (≈ 0.505 µM); in assay [12], 1 µg/mL (≈ 0.505 µM). The MIC with Entercoccus faecium 276 is 2 µg/mL (≈ 1.01 µM); in assay [13], 2 µg/mL (≈ 1.01 µM); in assay [14], 4 µg/mL (≈ 2.02 µM); in [15] it was 2 µg/mL (≈ 1.01 µM); in [16] it was not above 0.06 µg/mL; in assay [17], 1 µg/mL (≈ 0.505 µM). The MIC was more than 64 µg/mL in assay [18], more than 64 µg/mL against Escherichia coli EC14, 0.5 µg/mL (≈ 0.252 µM) in the assay with Entercoccus faecium 2041 and 1 µg/mL (≈ 0.505 µM) in the assay on Entercoccus faecium 180. In [19], the “mean geometric MIC, Vancomycin Resistant Strains” value came to 5.7 µg/mL. Also, the “mean geometric MIC, Vancomycin Sensitive Strains” value in assay [20] turned out to be 0.17 µg/mL.

These data come from US5840684A, “Glycopeptide antibiotic derivatives” (Eli Lilly and Company, priority 1995, dated 1998).
